How the values were obtained:
GluR1(L497Y) = target: T1, GluR1(L497Y) (Rattus norvegicus, UniProt P19490, L497Y); test: glutamate activation of GluR1(L497Y) current in transfected HEK cells (dose response); type: cell-based
T1 construct: expressed in transfected cells; host or cells: HEK 293 cells (ATCC1573)
Protocol: (§1) HEK 293 cells were transfected with a 1:3.5 ratio of GFP and GluR1(L497Y) using the calcium phosphate method using effectence for 6-8 hours, after which the media was replaced and supplemented with 1 mM kynurenic acid and 10 μM N-(4-hydroxyphenylpropanoyl) spermine or 10 μM CNQX. The transfected HEK cells were subsequently trypsinized and replated onto astrocyte feeder layers derived from either wild-type or PAR1−/− mice 24 hours post-transfection, and recordings were performed 24 hours after replating. The prepared transfectant was used as a biosensor in the following examples.

[1] = test system: cultured cortical astrocytes; test: sniffer-patch detection of glutamate release from cultured wild-type astrocytes with GluR1(L497Y)-transfected HEK cells; type: cell-based, mice; settings: for inward current in HEK cells expressing GluR1(L497Y): brief (<1 sec) pressure application, 500 μM TFLLR, 300 μM ATP, 180 μM bradykinin, wild-type astrocytes
Protocol: as §1
In this experimental example, the glutamate release from astrocytes was quantitatively evaluated in real time by a “sniffer-patch” detection system. […] The “sniffer-patch” method was performed according to “T. G. J. Allen, Trends Neurosci., Vol. 20, No. 5 pp. […], 1997”, unless there is different mention thereto.
Cultured astrocytes were prepared from P0-P3 postnatal mice obtained from KIST SPF. The cerebral cortex was dissected free of adherent meninges, minced, and dissociated into single cell suspension by trituration through a Pasteur pipette. All procedures involving the use of animals were reviewed and approved by the Emory University IACUC. Dissociated cells were plated onto either 12 mm glass coverslips or 6 well plates coated with 0.1 mg/ml poly-D-lysine. Cells were grown in DMEM media (Gibco, cat# 11960-044) supplemented with 25 mM glucose, 10% heat-inactivated horse serum, and 10% heat-inactivated fetal bovine serum, 2 mM glutamine, and 1000 units/ml penicillin-streptomycin. Cultures were maintained at 37° C. in a humidified 5% CO2-containing atmosphere. Astrocyte cultures prepared in this way were previously determined by GFAP (glial fibrillary acidic protein) staining to be greater than 95% astrocytes (Nicole et al., 2005). In some experiments, the culture media was replaced 24 hours after plating with DMEM with all added components except glutamine, and cultures were maintained for 4 days before experimentation in glutamine-free media.
Thus, this technique provides millisecond time resolution for the detection of micromolar levels of glutamate released from astrocytes.
(§2) GluR1(L497Y)-transfected HEK cells were directly plated onto an astrocyte monolayer, and subsequently the whole cell HEK current response under voltage clamp during brief 0.2 sec application of the PAR1 activator TFLLR (500 μM), ATP (300 μM), or bradykinin (180 μM), respectively, from a pressurized pipette was recorded (FIGS. 1a, and 1b).

wild-type astrocytes = test: Fura-2 Ca2+ imaging in wild-type astrocytes; type: cell-based, mice; settings: brief (<1 sec) pressure application; 500 μM TFLLR, 300 μM ATP, 180 μM bradykinin; Fura-2-AM
Protocol: (§3) FIG. 1a is a schematic illustrating experimental setup and a GFP fluorescent image of astrocyte—GluR1(L497Y)/GFP transfected HEK cell co-culture (upper left panel). […] The Fura2-AM loading was performed by incubating with 5 μM Fura2-AM in 1 μM pluronic acid (Molecular Probes) for 30 min at room temperature. The calibration bar is 20 μm.

cultured neurons = test: glutamate release from cultured neurons detected with GluR1(L497Y)-transfected HEK cells; type: cell-based
Protocol: To verify this prediction, effects of a hyperosmotic solution on the glutamate-release from cultured neurons and astrocytes were evaluated and are shown in FIGS. 3a to 3c.
The detection is abolished by the treatment of 10 μM CNQX. The right panel is the summary of the current amplitude changes; *p<0.05; paired t-test (n=6).
That is, a brief application of TFLLR caused no detectable glutamate-induced current in GluR1(L497Y)-transfected HEK cells adjacent to neurons.

PAR1-/- astrocytes [2] = test: Ca2+-sensitive dye imaging in PAR1-/- astrocytes; type: cell-based, mice; settings: TFLLR application
Protocol: as §3
(§4) These control experiments were performed on the same day as TFLLR stimulation of HEK cells on wild-type astrocytes, and confirm that PAR1 activators had no direct effect on GluR1(L497Y) currents in HEK cells.

PAR1-/- astrocytes [3] = test: sniffer-patch detection of glutamate release from PAR1-/- astrocytes with GluR1(L497Y)-transfected HEK cells; type: cell-based, mice
Protocol: as §1, §2

HEK cells = test: Ca2+-sensitive dye imaging in HEK cells (endogenous PAR1); type: cell-based; settings: TFLLR application, co-culture on PAR1-/- astrocytes
Protocol: as §3, §4

[4] = test system: acutely dissociated CA1 astrocytes; test: glutamate release from acutely dissociated CA1 hippocampal astrocytes detected with GluR1(L497Y)-transfected HEK cells; type: cell-based, mice; settings: brief (1 sec) application of TFLLR; n=4
Excerpt: Cells were acutely dissociated from the CA1 region of hippocampal slices prepared from transgenic mice (Jackson Laboratories) expressing GFP under control of the GFAP promoter (Brenner et al., 1994), allowing to unambiguously identify isolated hippocampal astrocytes that had not been subject to tissue culture. Cells were dissociated directly onto GluR1(L497Y)-transfected HEK cells obtained in Example 1.

NR1-1a/NR2A2D = test: D-serine or glycine release from astrocytes detected with NR1-1a/NR2A2D-transfected HEK cells; type: cell-based; settings: 100 uM glutamate + 10 uM DCKA vs 100 uM glutamate alone; 500 uM TFLLR
Protocol: HEK 293 cells were transfected NR1-1a and NR2A2D at a ratio of 1:2 by using the calcium phosphate method using effectence for 6-8 hours, after which the media was replaced and supplemented with 5 mM magnesium chloride and 10 μM D-2-amino-phosphonopentanoic acid or 10 μM D-AP5. The transfected HEK cells were subsequently trypsinized and replated onto astrocyte feeder layers derived from wild-type 24 hours post-transfection, and recordings performed 24 hours after replating. The prepared transfectant was used as a biosensor in the following examples.
To activate the NMDA receptor, it is necessary for the two subunits to bind to the corresponding binding materials, respectively. The activation may be confirmed by measuring intracellular inward current.
In this example, the media was supplemented with sufficient glutamate to saturate the glutamate domain. The intracellular inward current in the biosensor prepared in Example 5, under the conditions with or without treating a glycine binding domain blocker, DCKA, which artificially makes a glycine-free or D-serine-free condition, to examine the glycine or D-serine detecting ability of the biosensor.

T1 sequence (P19490 19-907 L497Y): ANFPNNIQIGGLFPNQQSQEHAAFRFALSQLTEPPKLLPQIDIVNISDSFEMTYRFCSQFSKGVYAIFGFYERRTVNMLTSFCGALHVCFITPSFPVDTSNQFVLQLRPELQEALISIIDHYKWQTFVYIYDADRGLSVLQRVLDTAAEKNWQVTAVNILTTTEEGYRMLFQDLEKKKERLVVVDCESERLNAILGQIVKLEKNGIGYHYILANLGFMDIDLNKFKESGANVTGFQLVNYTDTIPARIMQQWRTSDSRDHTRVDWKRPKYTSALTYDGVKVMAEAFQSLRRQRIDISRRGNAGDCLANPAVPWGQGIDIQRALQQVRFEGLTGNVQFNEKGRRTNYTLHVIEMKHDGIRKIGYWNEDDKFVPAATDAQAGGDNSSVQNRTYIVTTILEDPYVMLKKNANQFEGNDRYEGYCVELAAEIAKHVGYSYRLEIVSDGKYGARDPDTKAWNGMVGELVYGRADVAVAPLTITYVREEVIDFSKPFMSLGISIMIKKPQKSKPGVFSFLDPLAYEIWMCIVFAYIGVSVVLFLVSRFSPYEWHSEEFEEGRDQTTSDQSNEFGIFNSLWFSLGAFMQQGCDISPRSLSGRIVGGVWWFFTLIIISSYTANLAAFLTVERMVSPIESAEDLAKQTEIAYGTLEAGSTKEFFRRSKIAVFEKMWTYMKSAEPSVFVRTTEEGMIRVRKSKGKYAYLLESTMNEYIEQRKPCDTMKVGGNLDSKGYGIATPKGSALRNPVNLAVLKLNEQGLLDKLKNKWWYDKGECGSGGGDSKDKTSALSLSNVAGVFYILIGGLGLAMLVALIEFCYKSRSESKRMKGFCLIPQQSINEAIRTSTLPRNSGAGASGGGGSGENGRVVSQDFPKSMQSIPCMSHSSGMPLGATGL

## N[C@@H](CCC(=O)O)C(=O)O [glutamate]
GluR1(L497Y)
  Hill slope: 1.3

## Nc1ncnc2c1ncn2[C@@H]1O[C@H](COP(=O)(O)OP(=O)(O)OP(=O)(O)O)[C@@H](O)[C@H]1O [ATP]
[1]
  inward current in HEK cells expressing GluR1(L497Y): elicited an inward current
wild-type astrocytes
  astrocytic intracellular Ca2+: increased

## N#Cc1cc2[nH]c(=O)c(=O)[nH]c2cc1[N+](=O)[O-] [CNQX]
Cultured neurons; 10 μM CNQX, hyperosmotic solution 530 mosmol
  effect on detection of neuronal glutamate release evoked by hyperosmotic solution: abolished
[1]; CNQX 10 μM, glutamine-free medium
  effect on inward currents evoked by TFLLR: completely abolished

## TFLLR
Cultured neurons; 30 μM TFLLR or hyperosmotic solution, n=3
  glutamate-induced current in GluR1(L497Y) HEK cells adjacent to neurons: 3.0±0.1 pA
[1]; astrocytes cultured in the absence of glutamine, TFLLR 500 μM, n=4
  current response, % of the maximal response: 9.7 ± 1.3%
[1]
  inward current in HEK cells expressing GluR1(L497Y): elicited an inward current
[1]; percent of maximal response, applied to wild-type astrocytes, glutamine-containing medium, TFLLR 500 μM in pipette
  glutamate evoked current (%): 10±2.6%
[1]; same-day positive control, TFLLR or hyperosmotic solution, n=4
  glutamate-induced current in GluR1(L497Y) HEK cells on astrocytes: 136±35 pA
[1]; wild-type astrocyte cultures, TFLLR application, converted from current by Formula 1
  peak (maximum) glutamate concentration: 1.1 ± 0.24 µM
PAR1-/- astrocytes [2]
  PAR1-/- astrocytic intracellular Ca2+: did not alter
wild-type astrocytes
  astrocytic intracellular Ca2+: increased
PAR1-/- astrocytes [3]; PAR1-/- astrocyte cultures, TFLLR application, converted from current by Formula 1
  peak (maximum) glutamate concentration: 0.23 ± 0.13 µM
PAR1-/- astrocytes [3]; percent of maximal response, applied to PAR1-/- astrocytes
  glutamate evoked current (%): 1.4±0.9%
HEK cells
  HEK cell intracellular Ca2+: did increase
[4]
  glutamate release (concentration) evoked by TFLLR: 1.46 ± 0.54 µM

## O=C(O)c1cc(=O)c2c(Cl)cc(Cl)cc2[nH]1 [DCKA, 5,7-dichlorokynurenic acid]
NR1-1a/NR2A2D
  inward current value after treating TFLLR: considerably decreased
